In PMC9228733, “Novel Radioiodinated and Radiofluorinated Analogues of FT-2102 for SPECT or PET Imaging of mIDH1 Mutant Tumours” (Molecules, 2022):
Like-named read-outs stand apart in the source and are kept apart here.

Columns and labels:
wt IDH1 = target: T1, wt IDH1 (Homo sapiens, UniProt O75874); assay: wt IDH enzyme assay, wt IDH1; assay type: biochemical; settings: mean of at least three determinations
T1 construct: purchased abcam ab113858
Protocol: (§1) wt IDH enzyme assay is a modified version of the assay used for mIDH1. With the conversion of isocitrate to α-KG, this enzyme stoichiometrically converts NADP to NADPH. The produced NADPH, which directly couples to the diaphorase/resazurin system and the resorufin production, can be measured. The protocols for the determination of inhibition of both wt IDH1 and wt IDH2 were conducted as described by Wang et al.. The wt IDH1 (ab113858) was purchased from abcam (Cambridge, UK), and the wt IDH2, from BPS Bioscience (San Diego, CA, USA).
Briefly, wt IDH1 assays were conducted in 50 µL buffer (20 mM TRIS buffer (pH = 7.5), 150 mM NaCl, 10 mM MgCl2, 0.05% BSA, and 4 mM β-mercaptoethanol) containing 50 µM NADP, 70 µM D/L-isocitrate, and 0.04 µg/mL wt IDH1 enzyme (reaction time 1 h at RT). For inhibition assays, triplicate samples of the compounds in the concentration range from 10^−5 to 10^−10 M were incubated with the wt IDH1 for 1 h before addition of D/L-isocitrate and NADP to initiate the reaction together with the direct detection system comprising 20 µg/mL diaphorase and 4 µM resazurin.

IDH1 R132C = target: T2, IDH1 R132C (Homo sapiens, UniProt O75874, R132C); assay: Mutant IDH1 enzyme assay (diaphorase/resazurin), IDH1 R132C; assay type: biochemical; settings: mean ± SD of at least three determinations
T2 construct: purchased ActiveMotif ACM-31713
Protocol: (§2) The amount of NADPH remaining at the end of the reaction time is measured in a secondary diaphorase/resazurin reaction in which the NADPH is consumed in a 1:1 molar ratio with the conversion of resazurin to the highly fluorescent resorufin. […] For inhibition assays, triplicate samples of the compounds in the concentration range from 10^−5 to 10^−10 M were incubated with the enzyme for 30 min prior to addition of α-KG and NADPH to initiate the reaction. The reaction ran for 60 min at room temperature and was terminated with the addition of 25 μL of Detection Buffer (36 μg/mL diaphorase, […]) to 50 µL of the reaction solution. […] The data were imported into GraphPad Prism 4.1 (GraphPad Inc.; La Jolla; CA, USA), and the IC50 values were calculated with a standard dose–response curve fitting (Figure S3).

IDH1 R132H = target: T3, IDH1 R132H (Homo sapiens, UniProt O75874, R132H); assay: Mutant IDH1 enzyme assay (diaphorase/resazurin), IDH1 R132H; assay type: biochemical; settings: for IC50: mean ± SD of at least three determinations
T3 construct: purchased BPS Bioscience BPS-79376
Protocol: as §2

wt IDH2 = target: T4, wt IDH2 (Homo sapiens, UniProt P48735); assay: wt IDH enzyme assay, wt IDH2; assay type: biochemical; settings: mean of at least three determinations
T4 construct: purchased BPS Bioscience
T4 sequence (P48735 40-452): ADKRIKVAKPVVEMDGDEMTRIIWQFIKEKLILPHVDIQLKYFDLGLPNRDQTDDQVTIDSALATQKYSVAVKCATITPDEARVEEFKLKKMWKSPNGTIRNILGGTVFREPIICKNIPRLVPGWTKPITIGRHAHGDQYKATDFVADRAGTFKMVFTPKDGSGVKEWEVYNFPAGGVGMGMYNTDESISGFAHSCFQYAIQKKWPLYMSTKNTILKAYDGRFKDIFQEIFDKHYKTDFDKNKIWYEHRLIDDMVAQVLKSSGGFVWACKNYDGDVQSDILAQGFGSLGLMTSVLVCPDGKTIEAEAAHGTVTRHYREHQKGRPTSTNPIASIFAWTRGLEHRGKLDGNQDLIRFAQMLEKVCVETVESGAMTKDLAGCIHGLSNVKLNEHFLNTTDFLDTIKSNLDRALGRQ
Protocol: as §1
Assays for wt IDH2 were conducted in 50 µL buffer (20 mM TRIS buffer (pH = 7.5), 150 mM NaCl, 10 mM MgCl2, 0.05% BSA, and 4 mM β-mercaptoethanol) containing 50 µM NADP, 70 µM D/L-isocitrate, and 0.05 µg/mL wt IDH2 enzyme (reaction time 1 h at RT). For inhibition assays, triplicate samples of the compounds in the concentration range from 10^−5 to 10^−10 M were incubated with the wt IDH2 and NADP for 1 h before addition of D/L-isocitrate to initiate the reaction together with the direct detection system comprising 20 µg/mL diaphorase and 4 µM resazurin. The reaction was stopped by addition of 5 μL 10% SDS and read as described above. The data were imported into GraphPad Prism, and the IC50 values were calculated with a standard dose−response curve fitting.

[1] = Stability of radiotracer in mouse serum at 37 °C (radio-HPLC); assay type: in vitro ADME
Protocol: (§3) Figure 7 Radioactivity-HPLC chromatograms of the radiotracer (S)-[^125I]2 incubated, for 1, 2, and 3 h post formulation, at room temperature in ethanol, NaCl 0.9% containing 5% ethanol, and DPBS (pH 7.4) containing 5% ethanol, as well as in a mixture of DPBS and mouse serum at 37 °C.
(§4) Figure 8 Radioactivity-HPLC chromatograms of the radiotracer (S)-[^18F]3 incubated, for 0, 1, and 2 h post formulation, at room temperature in ethanol, NaCl 0.9% containing 5% ethanol, and DPBS (pH 7.4) containing 5% ethanol, as well as in a mixture of DPBS and mouse serum at 37 °C.

[2] = Stability of radiotracer at room temperature in ethanol, saline or DPBS (radio-HPLC); assay type: physicochemical
Protocol: To a solution of organotin precursor (S)-15 in methanol (50 µL, 1 mg/mL) were successively added [^125I]NaI (10-50 µL, 2.1–15.3 MBq), glacial acetic acid (2.5 µL), and a solution of CAT trihydrate (5 µL, 1 mg/mL). The reaction vial was sealed and stirred at room temperature for 5 min before addition of a solution of Na2S2O5 in deionised water (5 µL, 1 mg/mL). The reaction mixture was purified by semipreparative RP-HPLC. The collected fraction was further diluted with deionised water (10 mL) and passed through a Sep-Pak® Plus Light cartridge (beforehand conditioned successively with 10 mL of deionised water, 10 mL of methanol, and 10 mL of deionised water). The cartridge was washed with deionised water (2 mL) and dried with air before elution of the radioiodinated tracer (S)-[^125I]2 with ethanol (500 µL). The radiotracer was finally formulated in saline or DPBS (pH 7.4) to reach an ethanol content of ca. 5% for stability studies.
The aqueous solution of [^18F]F^− in [^18O]H2O was passed through an anion exchange resin (Sep-Pak® Light Accell Plus QMA carbonate cartridge) preconditioned with 10 mL of ethanol, 10 mL of an aqueous solution of lithium trifluoromethanesulfonate (90 mg/mL), and 10 mL of deionised water. Then, a solution of potassium carbonate (50 µg) and lithium trifluoromethanesulfonate (10 mg) in water (550 µL) was passed through the cartridge to elute the radioactivity to the reactor before addition of anhydrous ACN (1 mL). In such conditions, more than 97% of the radioactivity was usually recovered from the cartridge. The solution was dried by azeotropic distillation under reduced pressure and He flow at 100 °C for 12 min. After cooling to 25 °C, anhydrous DMA (2 mL) was added to the reactor. Then, 200 µL of the resulting solution (40–245 MBq, n = 10) was transferred in a glass vial equipped with a magnetic stirrer before addition of a solution of tetrakis(pyridine)copper(II) triflate (Cu(OTf)2(py)4, 14 mg, 20.6 µmol) in anhydrous DMA (250 µL) and a solution of the tin precursor (S)-15 (6.1 mg, 10.0 µmol) in anhydrous DMA (100 µL). The reaction mixture was stirred at 110 °C for 10 min. After cooling to 25 °C, deionised water (25 mL) was added, and the reaction mixture was passed through a Sep-Pak® C18 Plus Light cartridge preconditioned with 10 mL of deionised water, 10 mL of methanol, and 10 mL of deionised water. The cartridge was washed with deionised water (2 mL) and flushed with air before elution of the desired ^18F-labelled radiotracer with ACN (500 µL). For isolation of the radiotracer, the eluate was subjected to semipreparative RP-HPLC. The collected fraction was diluted with deionised water (25 mL) and passed through a Sep-Pak® C18 Plus Light cartridge preconditioned with 10 mL of deionised water, 10 mL of methanol, and 10 mL of deionised water. The cartridge was washed with deionised water (2 mL) and flushed with air before elution of the final (S)-[^18F]3 radiotracer with ethanol (500–600 µL). The radiotracer was finally formulated in saline or DPBS (pH 7.4) to reach an ethanol content of ca. 5% for stability studies.
as §3, §4

mIDH1 = settings: cited from earlier work
[3] = phenyl-glycine scaffold, mixtures of stereoisomers, read-out: IC50 for mIDH1
[4] = butyl-phenyl sulfonamides, read-out: IC50

T3 sequence (O75874 whole entry R132H): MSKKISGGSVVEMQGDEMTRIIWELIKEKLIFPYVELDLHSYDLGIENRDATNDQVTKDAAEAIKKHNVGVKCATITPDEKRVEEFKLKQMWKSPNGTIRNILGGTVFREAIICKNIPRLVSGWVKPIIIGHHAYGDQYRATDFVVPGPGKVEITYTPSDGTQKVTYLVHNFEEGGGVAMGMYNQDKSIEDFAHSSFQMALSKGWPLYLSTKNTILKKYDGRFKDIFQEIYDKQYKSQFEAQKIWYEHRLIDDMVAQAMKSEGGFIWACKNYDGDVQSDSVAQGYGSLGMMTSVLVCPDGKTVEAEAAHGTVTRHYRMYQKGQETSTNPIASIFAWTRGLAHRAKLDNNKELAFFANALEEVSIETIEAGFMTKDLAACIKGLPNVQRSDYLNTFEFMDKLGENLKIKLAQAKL
T1 sequence (O75874 whole entry): as the sequence (O75874 whole entry R132H) above, with H132R counted along it
T2 sequence (O75874 whole entry R132C): as the sequence (O75874 whole entry R132H) above, with H132C counted along it

Compound	IC50 (wt IDH1)	IC50 (IDH1 R132C)	IC50 (IDH1 R132H)	IC50 (wt IDH2)	IC50 (mIDH1; [3])	further results
C[C@@H](Nc1ccc(C#N)n(C)c1=O)c1cc2cc(I)ccc2[nH]c1=O [(R)-2, (R)-5-{[1-(6-iodo-2-oxo-1,2-dihydroquinolin-3-yl)ethyl]-amino}-1-methyl-6-oxo-1,6-dihydropyridine-2-carbonitrile]	> 10 µM	> 10 µM	0.323 ± 0.083 µM	> 10 µM		
C[C@@H](Nc1ccc(C#N)n(C)c1=O)c1cc2cc(F)ccc2[nH]c1=O [(R)-3, (R)-5-{[1-(6-fluoro-2-oxo-1,2-dihydroquinolin-3-yl)ethyl]-amino}-1-methyl-6-oxo-1,6-dihydropyridine-2-carbonitrile]	> 10 µM	> 10 µM	0.698 ± 0.145 µM	> 10 µM		
C[C@H](Nc1ccc(C#N)n(C)c1=O)c1cc2cc(I)ccc2[nH]c1=O [(S)-2, (S)-5-{[1-(6-iodo-2-oxo-1,2-dihydroquinolin-3-yl)ethyl]-amino}-1-methyl-6-oxo-1,6-dihydropyridine-2-carbonitrile]	> 10 µM	0.16 ± 0.024 µM	0.00523 ± 0.00075 µM	> 10 µM		
C[C@H](Nc1ccc(C#N)n(C)c1=O)c1cc2cc(F)ccc2[nH]c1=O [(S)-3, (S)-5-{[1-(6-fluoro-2-oxo-1,2-dihydroquinolin-3-yl)ethyl]-amino}-1-methyl-6-oxo-1,6-dihydropyridine-2-carbonitrile]	> 10 µM	0.579 ± 0.11 µM	0.0227 ± 0.0052 µM	> 10 µM		decrease of inhibitory potency compared with iodinated compound (S)-2 (IDH1 R132H; IDH1 R132H): fourfold
C[C@H](Nc1ccc(C#N)n(C)c1=O)c1cc2cc([18F])ccc2[nH]c1=O [(S)-[^18F]3]						RCP (stability) ([1]; 37 °C, over 2 h): > 99%; RCP (stability) ([2]; DPBS (pH 7.4) containing 5% ethanol, over 2 h): > 99%; RCP (stability) ([2]; NaCl 0.9% containing 5% ethanol, over 2 h): > 99%; RCP (stability) ([2]; ethanolic solution from final C18 SPE cartridge, over 2 h): > 99%
C[C@H](Nc1ccc(C#N)n(C)c1=O)c1cc2cc([125I])ccc2[nH]c1=O [(S)-[^125I]2]						RCP (stability) ([1]; 3 h at 37 °C): 94.3%; RCP (stability) ([2]; DPBS pH 7.4, room temperature, 3 h post formulation): 97.4%; RCP (stability) ([2]; ethanolic solution eluted after C18 SPE cartridge, room temperature, 3 h post formulation): 98.0%; RCP (stability) ([2]; formulation medium (saline, ca. 5% ethanol), room temperature, 3 h post formulation): 97.2%
Cc1ccccc1C(C(=O)NC1CCCCC1)N(C(=O)Cn1ccnc1C)c1cccc([18F])c1 (stereo not shown) [III]					< 0.05 µM	
Cc1ccccc1C(C(=O)NC1CCCCC1)N(C(=O)n1cnc2ccccc21)c1cccc([18F])c1 (stereo not shown) [II]					< 0.05 µM	
Cc1ccccc1C(C(=O)NC1CCCCC1)N(C(=O)Cn1ccnc1C)c1cccc([125I])c1 (stereo not shown) [IV]					< 0.05 µM	
N#Cc1ccnc(N2C(=O)CCC2C(=O)N(c2cncc([18F])c2)C(C(=O)NC2CC(F)(F)C2)c2ccccc2Cl)c1 (stereo not shown) [I]					< 0.05 µM	
CCCCc1ccc(NS(=O)(=O)c2ccc(C)c(C(=O)N3CCN(c4ccccc4OCC[18F])CC3)c2)cc1 [VII]						IC50 (mIDH1; [4]): 2.3 µM
CCCCc1ccc(NS(=O)(=O)c2ccc(C)c(C(=O)N3CCN(c4ccccc4[125I])CC3)c2)cc1 [VI]						IC50 (mIDH1; [4]): 1.7 µM
